As a reminder, the viability is a read-out of living cells in per cent, often relative to untreated cells.

The nature of one data set: in vitro. To be noted: human, hela cells, % viability.
Consider `O=S(=O)([O-])CCC[n+]1c(/C=C/Nc2ccccc2)oc2ccc3ccccc3c21` [CBK261082], for which the viability at 28.5 h, 10 µM was determined as 114%. Still for that read-out and setting: the result for `O=C(O)CS(=O)(=O)c1ccccc1C(=O)O` [CBK261083] reads 98.9%; that for `O=C(NC(N1CCOCC1)C(Cl)(Cl)Cl)c1ccc(Cl)cc1` (centres unmarked) [CBK261084], 94.2%. For `O=[N+]([O-])c1ccc(C(O)CNC(=S)Nc2ccccc2)cc1` (centres unmarked) [CBK261086], the viability at 28.5 h, 10 µM is 99.8%. Take `NC(CCCCNC(=O)c1ccccc1)C(=O)O` (centres unmarked) [CBK261087]: the viability at 28.5 h, 10 µM came out at 97%. The same measure, in the same setting: the result for `O=C(O)c1cccc(/N=C/c2ccc(/C=N/c3cccc(C(=O)O)c3)cc2)c1` [CBK261088] reads 92.3%.

As to `O=C(CCCN1C(=O)c2cccc3cccc(c23)C1=O)NO` [CBK261092], the viability at 28.5 h, 10 µM turned out to be 92%. For `O=[N+]([O-])c1ccc(O)c(/C=N/c2ccc(Oc3ccc(/N=C/c4cc([N+](=O)[O-])ccc4O)cc3)cc2)c1` [CBK261093], the viability at 28.5 h, 10 µM is 96.7%. `O=C(Cc1cccc2ccccc12)NC(NC(=S)Nc1ccccc1Br)C(Cl)(Cl)Cl` (centres unmarked) [CBK261094]: the viability at 28.5 h, 10 µM worked out at 106%. Still for that read-out and setting: the result for `O=C(O)c1ccccc1-n1c(=O)c2cc3c(=O)n(-c4ccccc4C(=O)O)c(=O)c3cc2c1=O` [CBK261097] reads 87.5%; that for `CC(C)(C)c1cc(CNCCS(=O)(=O)O)c(O)c(C(C)(C)C)c1` [CBK261098], 107%; that for `CC(=O)Oc1cccc(N2C(=O)c3ccc(Oc4cccc(N)c4)cc3C2=O)c1` [CBK261099], 96.4%. As for `O=C(O)c1cc(C(=O)O)c(-c2ccccc2)c(C(=O)O)c1` [CBK261101], the viability at 28.5 h, 10 µM was 93.7%.

For `Cc1cccc(N(CC(=O)O)CC(=O)O)c1` [CBK261103], the viability at 28.5 h, 10 µM amounted to 93.2%. In the case of `O=S(=O)(Oc1ccc(-c2cnc3ccccc3n2)cc1)c1ccccc1` [CBK261104], the viability at 28.5 h, 10 µM came to 93.4%. Regarding `CC(=O)NC(Cc1c[nH]cn1)C(=O)O` (centres unmarked) [CBK261105], the viability at 28.5 h, 10 µM is 101%. Still for that read-out and setting: the result for `Oc1ccccc1/C=N/CC(O)C/N=C/c1ccccc1O` [CBK261112] reads 103%; that for `CCN(CC(O)COc1ccc2ccccc2c1)S(=O)(=O)O` (centres unmarked) [CBK261113K], 87.2%; that for `c1ccc2c(c1)nnn2CNCn1nnc2ccccc21` [CBK261114], 85.4%. Consider `O=C(N/N=C/c1ccncc1)C1CC1C(=O)N/N=C/c1ccncc1` (centres unmarked) [CBK261115], for which the viability at 28.5 h, 10 µM stood at 90.2%. For the compound `Cc1ccnc(NCn2nnc3ccccc32)c1` [CBK261116], the viability at 28.5 h, 10 µM amounted to 110%. Turning to `O=C(NC(C(=O)N/N=C/c1ccccc1O)c1n[nH]c(=O)c2ccccc12)c1ccccc1` (centres unmarked) [CBK261117], the viability at 28.5 h, 10 µM is 113%. Regarding `O/N=C1/c2ccccc2/C(=N/O)C1c1ccccc1` [CBK261122], the viability at 28.5 h, 10 µM turned out to be 75.2%. In the case of `Oc1cccc2ccc(/C=N/N=C/c3ccc4cccc(O)c4n3)nc12` [CBK261127], the viability at 28.5 h, 10 µM turned out to be 89.3%.

For the compound `O=S(=O)(NCCc1ccccc1)c1cccc2nsnc12` [CBK261128], the viability at 28.5 h, 10 µM worked out at 103%. For the compound `CN(C)c1nc2ccc(OCCN3CCOCC3)cc2s1` [CBK261135], the viability at 28.5 h, 10 µM came to 82.5%.

Turning to `O=C(O)CNS(=O)(=O)c1cccc2nsnc12` [CBK261136], the viability at 28.5 h, 10 µM came out at 96.8%.

With `N#CCCN(CCN1CCCC1)S(=O)(=O)c1cccc2nsnc12` [CBK261141], the viability at 28.5 h, 10 µM turned out to be 99.3%.

For the compound `O=[N+]([O-])c1cccc(C(Nc2ccccn2)n2cnc3ccccc32)c1` (centres unmarked) [CBK261145], the viability at 28.5 h, 10 µM amounted to 87.6%. As for `O=C(O)CCCNC(=O)c1ccncc1` [CBK261146], the viability at 28.5 h, 10 µM stood at 104%.

The same data set, now with this note: human, hela cells, % viability, bulk resorufin, single well.
As to `O=[N+]([O-])c1ccc(-n2cnc3ccccc32)c([N+](=O)[O-])c1` [CBK261120], the viability at 28.5 h, 10 µM was 91.9%. Still for that read-out and setting: as for `O=C1NC(=S)NC(=O)C1=CNCCc1c[nH]c2ccccc12` [CBK261124], the figure is 110%.

The values above are taken from article PMC12040169 (PLOS Biology, 2025).
